Common to all, as to type: in vivo
Common to all, as to settings: 100 ppm, 1 Day Protectant

For one assay, the system named is Leptosphaeria nodorum. Kind of assay: Wheat Glume Blotch (LEPTNO) disease control. The procedure:
Technical grades of materials were dissolved in acetone, which were then mixed with nine volumes of water containing 110 ppm Triton X-100. The fungicide solutions were applied onto wheat seedlings using an automated booth sprayer to run-off. All sprayed plants were allowed to air dry prior to further handling. All fungicides were evaluated using the aforementioned method for their activity vs. all target diseases, unless stated otherwise. Wheat leaf blotch and brown rust activity were also evaluated using track spray applications, in which case the fungicides were formulated as EC formulations, containing 0.1% Trycol 5941 in the spray solutions. Wheat plants (variety Yuma) were grown from seed in a greenhouse in 50% mineral soil/50% soil-less Metro mix until the first leaf was fully emerged, with 7-10 seedlings per pot. These plants were inoculated with an aqueous spore suspension of Septoria tritici either prior to or after fungicide treatments. After inoculation the plants were kept in 100% relative humidity (one day in a dark dew chamber followed by two to three days in a lighted dew chamber at 20° C.) to permit spores to germinate and infect the leaf. The plants were then transferred to a greenhouse set at 20° C. for disease to develop. When disease symptoms were fully expressed on the 1st leaves of untreated plants, infection levels were assessed on a scale of 0 to 100 percent disease severity. Percent disease control was calculated using the ratio of disease severity on treated plants relative to untreated plants. Example C: Evaluation of Fungicidal Activity: Wheat Glume Blotch (Leptosphaeria nodorum; Bayer code […]) Wheat plants (variety Yuma) were grown from seed in a greenhouse in 50% mineral soil/50% soil-less Metro mix until the first leaf was fully emerged, with 7-10 seedlings per pot. These plants were inoculated with an aqueous spore suspension of Leptosphaeria nodorum 24 hr after fungicide treatments. […]

Another assay has as its system Erysiphe cichoracearum. Kind of assay: Powdery Mildew of Cucumber (ERYSCI) disease control. The procedure:
Technical grades of materials were dissolved in acetone, which were then mixed with nine volumes of water containing 110 ppm Triton X-100. The fungicide solutions were applied onto wheat seedlings using an automated booth sprayer to run-off. All sprayed plants were allowed to air dry prior to further handling. All fungicides were evaluated using the aforementioned method for their activity vs. all target diseases, unless stated otherwise. Wheat leaf blotch and brown rust activity were also evaluated using track spray applications, in which case the fungicides were formulated as EC formulations, containing 0.1% Trycol 5941 in the spray solutions. Wheat plants (variety Yuma) were grown from seed in a greenhouse in 50% mineral soil/50% soil-less Metro mix until the first leaf was fully emerged, with 7-10 seedlings per pot. These plants were inoculated with an aqueous spore suspension of Septoria tritici either prior to or after fungicide treatments. After inoculation the plants were kept in 100% relative humidity (one day in a dark dew chamber followed by two to three days in a lighted dew chamber at 20° C.) to permit spores to germinate and infect the leaf. The plants were then transferred to a greenhouse set at 20° C. for disease to develop. When disease symptoms were fully expressed on the 1st leaves of untreated plants, infection levels were assessed on a scale of 0 to 100 percent disease severity. Percent disease control was calculated using the ratio of disease severity on treated plants relative to untreated plants. Example F: Evaluation of Fungicidal Activity: Powdery Mildew of Cucumber (Erysiphe cichoracearum; Bayer Code […]) Cucumber seedlings (variety Bush Pickle) were grown in soil-less Metro mix, with one plant per pot, and used in the test when 12 to 14 days old. Plants were inoculated with a spore suspension 24 hr following fungicide treatments. After inoculation the plants remained in the greenhouse set at 20° C. until disease was fully expressed. […]

Another assay concerns Cercospora beticola. Description: Leaf Spot of Sugar Beets (CERCBE) disease control. The procedure: Technical grades of materials were dissolved in acetone, which were then mixed with nine volumes of water containing 110 ppm Triton X-100. The fungicide solutions were applied onto wheat seedlings using an automated booth sprayer to run-off. All sprayed plants were allowed to air dry prior to further handling. All fungicides were evaluated using the aforementioned method for their activity vs. all target diseases, unless stated otherwise. Wheat leaf blotch and brown rust activity were also evaluated using track spray applications, in which case the fungicides were formulated as EC formulations, containing 0.1% Trycol 5941 in the spray solutions. Wheat plants (variety Yuma) were grown from seed in a greenhouse in 50% mineral soil/50% soil-less Metro mix until the first leaf was fully emerged, with 7-10 seedlings per pot. These plants were inoculated with an aqueous spore suspension of Septoria tritici either prior to or after fungicide treatments. After inoculation the plants were kept in 100% relative humidity (one day in a dark dew chamber followed by two to three days in a lighted dew chamber at 20° C.) to permit spores to germinate and infect the leaf. The plants were then transferred to a greenhouse set at 20° C. for disease to develop. When disease symptoms were fully expressed on the 1st leaves of untreated plants, infection levels were assessed on a scale of 0 to 100 percent disease severity. Percent disease control was calculated using the ratio of disease severity on treated plants relative to untreated plants. Example G: Evaluation of Fungicidal Activity: Leaf Spot of Sugar Beets (Cercospora Beticola; Bayer Code CERCBE) Sugar beet plants (variety HH88) were grown in soil-less Metro mix and trimmed regularly to maintain a uniform plant size prior to test. Plants were inoculated with a spore suspension 24 hr after fungicide treatments. Inoculated plants were kept in a dew chamber at 22° C. for 48 hr then incubated in a greenhouse set at 24° C. under a clear plastic hood with bottom ventilation until disease symptoms were fully expressed. […]

Another assay deals with Magnaporthe grisea.

Experimental findings from patent publication US9686984B2, “Macrocyclic picolinamides as fungicides” (DOW AGROSCIENCES LLC, priority 2014, dated 2017) are described below.

As for `CCCC[C@H]1OCC[C@H](NC(=O)c2nccc(OC)c2OC(C)=O)C(=O)O[C@@H](C)[C@@H]1Cc1ccccc1` [Compound 2], the “LEPTNO disease control, 1DP” value in the assay with Leptosphaeria nodorum is given as “A (>70)”. For the same molecule, in the assay on Erysiphe cichoracearum, the “ERYSCI disease control, 1DP” value is reported as “B (≦70)”. Besides, the “CERCBE disease control, 1DP” value in the assay on Cercospora beticola is reported as “A (>70)”. For the same molecule, in the assay on Magnaporthe grisea, the “PYRIOR disease control, 1DP” value is listed as “A (>70)”.

With `COc1ccnc(C(=O)N[C@H]2CCO[C@H](Cc3ccccc3)[C@@H](Cc3ccccc3)[C@H](C)OC2=O)c1OC(C)=O` [Compound 3], in the assay on Leptosphaeria nodorum, the “LEPTNO disease control, 1DP” value is given as “A (>70)”. Besides, in the assay with Erysiphe cichoracearum, the “ERYSCI disease control, 1DP” value is on record as “B (≦70)”. Also, in the assay with Cercospora beticola, the “CERCBE disease control, 1DP” value is recorded as “A (>70)”. For the same molecule, in the assay on Magnaporthe grisea, the “PYRIOR disease control, 1DP” value was “A (>70)”.

Turning to `CCC[C@H]1OCC[C@H](NC(=O)c2nccc(OC)c2OCOC(C)=O)C(=O)O[C@@H](C)[C@@H]1Cc1ccccc1` [Compound 17], the “LEPTNO disease control, 1DP” value in the assay with Leptosphaeria nodorum is on record as “A (>70)”. Also, the “ERYSCI disease control, 1DP” value in the assay with Erysiphe cichoracearum is on record as “B (≦70)”. The “CERCBE disease control, 1DP” value in the assay on Cercospora beticola is “A (>70)”. The “PYRIOR disease control, 1DP” value with Magnaporthe grisea is on record as “A (>70)”.
